According to PubChem BioAssay AID2060884 (Molecular Pharmacology Branch, DTP, NCI, 2025):
pIC50: −log10 of the molar value.

System: NCI-H929 complex spheroids, viability % test/control
Test: Anticancer human tumor NCI-H929 cell line growth inhibition [RAS];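 also: compound exposure lasted seven days before viability was read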;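 as to viability, T/C: 100% = DMSO vehicle control viability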
Settings: for pIC50: curve of first compound; for viability, T/C: stronger effect = lower value
How it was run: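 Tumour cells grown as complex spheroids with HUVEC endothelial cells and mesenchymal stem cells, treated with RAS pathway inhibitor combinations. Each agent spans half-log steps from near clinical Cmax, or 10 microM where Cmax is unknown.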

Compound: Cc1nc(N2CCC3(CC2)COC(C)C3N)c(CO)nc1Sc1ccnc(N)c1Cl (configuration not stated) + C#Cc1c(F)ccc2cc(O)cc(-c3ncc4c(N5CC6CCC(C5)N6)nc(OCC56CCCN5CC(F)C6)nc4c3F)c12
- pIC50 (second compound 0.0316 µM): < 5.00
- pIC50 (second compound 0.1 µM): < 5.00
- pIC50 (second compound 0.316 µM): < 5.00
- pIC50 (second compound 1 µM): < 5.00
- pIC50 (second compound 3.16 µM): < 5.00
- pIC50 (second compound 10 µM): < 5.00
- viability, T/C (second compound 0.0316 µM, first compound 0.0316 µM): 101%
- viability, T/C (second compound 0.0316 µM, first compound 0.1 µM): 95.1%
- viability, T/C (second compound 0.0316 µM, first compound 0.316 µM): 98%
- viability, T/C (second compound 0.0316 µM, first compound 1 µM): 98.7%
- viability, T/C (second compound 0.0316 µM, first compound 3.16 µM): 98.4%
- viability, T/C (second compound 0.0316 µM, first compound 10 µM): 99.5%
- viability, T/C (second compound 0.1 µM, first compound 0.0316 µM): 97.3%
- viability, T/C (second compound 0.1 µM, first compound 0.1 µM): 97.6%
- viability, T/C (second compound 0.1 µM, first compound 0.316 µM): 95.3%
- viability, T/C (second compound 0.1 µM, first compound 1 µM): 99%
- viability, T/C (second compound 0.1 µM, first compound 3.16 µM): 99%
- viability, T/C (second compound 0.1 µM, first compound 10 µM): 107%
- viability, T/C (second compound 0.316 µM, first compound 0.0316 µM): 96%
- viability, T/C (second compound 0.316 µM, first compound 0.1 µM): 97.3%
- viability, T/C (second compound 0.316 µM, first compound 0.316 µM): 99%
- viability, T/C (second compound 0.316 µM, first compound 1 µM): 101%
- viability, T/C (second compound 0.316 µM, first compound 3.16 µM): 101%
- viability, T/C (second compound 0.316 µM, first compound 10 µM): 102%
- viability, T/C (second compound 1 µM, first compound 0.0316 µM): 93.4%
- viability, T/C (second compound 1 µM, first compound 0.1 µM): 102%
- viability, T/C (second compound 1 µM, first compound 0.316 µM): 102%
- viability, T/C (second compound 1 µM, first compound 1 µM): 100%
- viability, T/C (second compound 1 µM, first compound 3.16 µM): 103%
- viability, T/C (second compound 1 µM, first compound 10 µM): 103%
- viability, T/C (second compound 3.16 µM, first compound 0.0316 µM): 103%
- viability, T/C (second compound 3.16 µM, first compound 0.1 µM): 99.8%
- viability, T/C (second compound 3.16 µM, first compound 0.316 µM): 99.5%
- viability, T/C (second compound 3.16 µM, first compound 1 µM): 101%
- viability, T/C (second compound 3.16 µM, first compound 3.16 µM): 102%
- viability, T/C (second compound 3.16 µM, first compound 10 µM): 104%
- viability, T/C (second compound 10 µM, first compound 0.0316 µM): 99.9%
- viability, T/C (second compound 10 µM, first compound 0.1 µM): 104%
- viability, T/C (second compound 10 µM, first compound 0.316 µM): 106%
- viability, T/C (second compound 10 µM, first compound 1 µM): 103%
- viability, T/C (second compound 10 µM, first compound 3.16 µM): 103%
- viability, T/C (second compound 10 µM, first compound 10 µM): 85.6%
